Test results: patent publication US9114067B2, “Local administration of gallium compositions to treat pain” (priority 2006, dated 2015)
Read-outs that look alike come from different tables or passages of the source.

Legend:
postherpetic neuralgia [1] = experiment: Case report: gallium maltolate cream to treat postherpetic neuralgia (person); type: in vivo, human; conditions: tried over about three years before gallium treatment
Protocol: A person had been experiencing postherpetic neuralgia with erythema on the left side of their face for approximately three years. The pain was so severe that it interfered with sleep and other daily activities. During that period they had tried numerous systemic analgesics to relieve the pain, including amitriptyline 25 mg BID, methadone 5 mg BID, carbamazepine 100 mg BID, gabapentin 200 mg QD, oxycodone 20 mg BID, naproxen, acetaminophen, and intravenous hydrogen peroxide. […] They then began treatment using the topical gallium maltolate formulation of Example 1, above. This formulation was applied three times per day to the affected area, at about 8 AM, 1 PM, and 9 PM, every day for four weeks. The formulation was administered by dipping a fingertip lightly into the formulation, and then smearing the formulation from the fingertip onto the affected area.

[2] = tested on: peripheral neuropathic pain; conditions: cited from earlier work
vaginal inflammation = experiment: Case report: gallium maltolate cream to treat pain and itching associated with vaginal inflammation (person); type: in vivo, human; conditions: for effect of earlier topical treatment on vaginal inflammation symptoms: same patient before gallium treatment
[3] = tested on: painful diabetic neuropathy; conditions: Wiffen et al. 2005; cited from earlier work
postherpetic neuralgia [4] = conditions: cited from earlier work
[5] = tested on: non-malignant neuropathic pain; conditions: cited from earlier work
[6] = meta-analysis, Eisenberg et al. 2005

## CC(=O)Nc1ccc(O)cc1 [acetaminophen]
Postherpetic neuralgia [1]
  pain relief from earlier treatments tried by the same patient: None of these treatments produced significant pain relief

## CN(C)CCC=C1c2ccccc2CCc2ccccc21 [amitriptyline]
[2]; Saarto and Wiffen 2005
  NNT (number needed to treat) for moderate pain relief: 2
[2]; explanation of NNT 2
  share of those treated with at least moderate pain relief: 50%
Postherpetic neuralgia [1]
  pain relief from earlier treatments tried by the same patient: None of these treatments produced significant pain relief

## CCOC(=O)c1ccc(N)cc1 [benzocaine]
Vaginal inflammation
  effect of earlier topical treatment on vaginal inflammation symptoms: little effect

## NC(=O)N1c2ccccc2C=Cc2ccccc21 [carbamazepine]
[3]
  NNT for moderate pain relief: 2.3
Postherpetic neuralgia [1]
  pain relief from earlier treatments tried by the same patient: None of these treatments produced significant pain relief

## NCC1(CC(=O)O)CCCCC1 [gabapentin]
[3]
  NNT for moderate pain relief: 3.8
Postherpetic neuralgia [4]; postherpetic neuralgia, Wiffen et al. 2005
  NNT for moderate pain relief: 3.2
Postherpetic neuralgia [1]
  pain relief from earlier treatments tried by the same patient: None of these treatments produced significant pain relief

## OO [hydrogen peroxide]
Postherpetic neuralgia [1]
  pain relief from earlier treatments tried by the same patient: None of these treatments produced significant pain relief

## CN1CC[C@]23CCCC[C@H]2[C@H]1Cc1ccc(O)cc13 [levorphanol]
[5]; [6]
  efficacy in intermediate-term (8-56 day) studies: marginal efficacy
  efficacy in short-term (24 hour) studies: marginal to no efficacy
Postherpetic neuralgia [4]; Rowbotham et al. 2003
  subjects who dropped out of the study due to drug side effects: 31%
Postherpetic neuralgia [4]; high dose, Rowbotham et al. 2003
  average reduction in pain: 33%
Postherpetic neuralgia [4]; low dose, Rowbotham et al. 2003
  average reduction in pain: 14%

## CCC(=O)C(CC(C)N(C)C)(c1ccccc1)c1ccccc1 (stereo not shown) [methadone]
[5]; [6]
  efficacy in intermediate-term (8-56 day) studies: marginal efficacy
  efficacy in short-term (24 hour) studies: marginal to no efficacy
Postherpetic neuralgia [1]
  pain relief from earlier treatments tried by the same patient: None of these treatments produced significant pain relief

## Clc1ccc(COC(Cn2ccnc2)c2ccc(Cl)cc2Cl)c(Cl)c1 (stereo not shown) [miconazole]
Vaginal inflammation; same patient
  local tolerability of earlier topical treatment: irritating
Vaginal inflammation
  effect of earlier topical treatment on vaginal inflammation symptoms: ineffective

## CN1CC[C@]23c4c5ccc(O)c4O[C@H]2[C@@H](O)C=C[C@H]3[C@H]1C5 [morphine]
[5]; in vivo
  efficacy in intermediate-term (8-56 day) studies: marginal efficacy
  efficacy in short-term (24 hour) studies: marginal to no efficacy

## COc1ccc2cc([C@H](C)C(=O)O)ccc2c1 [naproxen]
Postherpetic neuralgia [1]
  pain relief from earlier treatments tried by the same patient: None of these treatments produced significant pain relief

## COc1ccc2c3c1O[C@H]1C(=O)CC[C@@]4(O)[C@@H](C2)N(C)CC[C@]314 [oxycodone]
[5]; [6]
  efficacy in intermediate-term (8-56 day) studies: marginal efficacy
  efficacy in short-term (24 hour) studies: marginal to no efficacy
Postherpetic neuralgia [1]
  pain relief from earlier treatments tried by the same patient: None of these treatments produced significant pain relief

## O=C1NC(=O)C(c2ccccc2)(c2ccccc2)N1 [phenytoin]
[3]
  NNT for moderate pain relief: 2.1
